Results published in ChEMBL document CHEMBL5649166, “RIP3 induces apoptosis independent of pronecrotic kinase activity” (Mol Cell, 2014).

Assays:
[1] = molecular target: T1, Tyrosine-protein kinase TXK (Homo sapiens) (UniProt P42681); assay: Inhibition of human TXK using EAIYAAPFAKKK as substrate at 1 uM in presence of 32P-ATP by Hotspot assay relative to control; values are per cent of control
T1 sequence (whole entry): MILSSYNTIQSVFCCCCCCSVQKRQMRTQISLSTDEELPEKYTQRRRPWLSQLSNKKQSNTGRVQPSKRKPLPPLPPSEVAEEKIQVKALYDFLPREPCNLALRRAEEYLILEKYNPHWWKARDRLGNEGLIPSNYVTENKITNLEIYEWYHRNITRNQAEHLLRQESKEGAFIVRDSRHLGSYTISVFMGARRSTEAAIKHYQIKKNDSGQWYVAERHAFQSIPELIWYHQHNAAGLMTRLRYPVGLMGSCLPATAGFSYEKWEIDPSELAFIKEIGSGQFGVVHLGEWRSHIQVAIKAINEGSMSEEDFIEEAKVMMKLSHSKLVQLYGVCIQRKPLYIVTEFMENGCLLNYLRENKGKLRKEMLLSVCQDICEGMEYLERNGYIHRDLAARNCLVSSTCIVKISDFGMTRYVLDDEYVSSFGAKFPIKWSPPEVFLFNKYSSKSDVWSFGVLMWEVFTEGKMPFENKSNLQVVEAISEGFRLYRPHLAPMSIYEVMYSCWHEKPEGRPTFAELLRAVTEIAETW

[2] = molecular target: T2, Phosphorylase b kinase gamma catalytic chain, liver/testis isoform (Homo sapiens) (UniProt P15735); assay: Inhibition of human PHKg2 using KKLNRTLSFAEPG as substrate at 1 uM in presence of 32P-ATP by Hotspot assay relative to control; values are per cent of control
T2 sequence (whole entry): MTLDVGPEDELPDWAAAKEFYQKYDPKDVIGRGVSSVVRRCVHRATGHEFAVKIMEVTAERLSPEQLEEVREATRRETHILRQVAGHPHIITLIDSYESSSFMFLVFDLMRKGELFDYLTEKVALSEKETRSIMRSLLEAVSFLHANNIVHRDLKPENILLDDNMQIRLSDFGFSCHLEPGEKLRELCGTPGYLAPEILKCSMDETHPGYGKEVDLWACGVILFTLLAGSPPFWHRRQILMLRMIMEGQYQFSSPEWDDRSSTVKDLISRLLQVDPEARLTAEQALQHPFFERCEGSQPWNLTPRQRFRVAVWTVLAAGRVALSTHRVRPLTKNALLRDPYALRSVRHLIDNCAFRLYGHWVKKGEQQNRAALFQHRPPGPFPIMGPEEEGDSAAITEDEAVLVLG

[3] = molecular target: T3, Serine/threonine-protein kinase 4 (Homo sapiens) (UniProt Q13043); assay: Inhibition of human MST1/STK4 using KKSRGDYMTMQIG as substrate at 1 uM in presence of 32P-ATP by Hotspot assay relative to control; values are per cent of control
T3 sequence (whole entry): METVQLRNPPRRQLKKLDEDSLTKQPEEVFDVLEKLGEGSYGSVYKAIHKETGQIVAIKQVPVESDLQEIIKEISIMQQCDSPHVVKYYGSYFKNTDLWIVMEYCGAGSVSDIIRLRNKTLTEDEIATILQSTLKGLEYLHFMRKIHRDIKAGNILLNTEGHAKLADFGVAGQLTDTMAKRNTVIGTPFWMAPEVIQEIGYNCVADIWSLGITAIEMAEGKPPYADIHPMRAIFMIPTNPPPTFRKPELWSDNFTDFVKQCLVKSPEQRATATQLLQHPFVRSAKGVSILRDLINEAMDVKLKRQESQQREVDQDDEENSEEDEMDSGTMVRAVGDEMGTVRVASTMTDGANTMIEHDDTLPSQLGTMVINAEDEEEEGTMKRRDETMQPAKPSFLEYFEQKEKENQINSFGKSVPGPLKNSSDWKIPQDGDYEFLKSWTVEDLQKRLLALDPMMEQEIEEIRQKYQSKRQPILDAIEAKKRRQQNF

[4] = molecular target: Casein kinase II subunit alpha' (Homo sapiens) (UniProt P19784); assay: Inhibition of human CK2a2 using RRRDDDSDDD as substrate at 1 uM in presence of 32P-ATP by Hotspot assay relative to control; values are per cent of control
Chain of Casein kinase II subunit alpha' (Homo sapiens) (P19784 whole entry, looked up): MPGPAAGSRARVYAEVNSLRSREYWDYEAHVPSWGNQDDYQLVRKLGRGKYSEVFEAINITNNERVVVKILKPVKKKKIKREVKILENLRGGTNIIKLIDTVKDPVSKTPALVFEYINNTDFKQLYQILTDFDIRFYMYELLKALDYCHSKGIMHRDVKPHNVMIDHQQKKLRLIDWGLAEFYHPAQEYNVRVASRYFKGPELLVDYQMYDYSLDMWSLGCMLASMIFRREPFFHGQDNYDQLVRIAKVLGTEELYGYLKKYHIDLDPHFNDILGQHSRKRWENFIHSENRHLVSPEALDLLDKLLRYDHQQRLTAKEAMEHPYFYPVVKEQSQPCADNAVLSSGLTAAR

[5] = molecular target: TGF-beta receptor type-2 (Homo sapiens) (UniProt P37173); assay: Inhibition of human TGFBR2 using myelin basic protein as substrate at 1 uM in presence of 32P-ATP by Hotspot assay relative to control; values are per cent of control
Chain of TGF-beta receptor type-2 (Homo sapiens) (P37173 whole entry): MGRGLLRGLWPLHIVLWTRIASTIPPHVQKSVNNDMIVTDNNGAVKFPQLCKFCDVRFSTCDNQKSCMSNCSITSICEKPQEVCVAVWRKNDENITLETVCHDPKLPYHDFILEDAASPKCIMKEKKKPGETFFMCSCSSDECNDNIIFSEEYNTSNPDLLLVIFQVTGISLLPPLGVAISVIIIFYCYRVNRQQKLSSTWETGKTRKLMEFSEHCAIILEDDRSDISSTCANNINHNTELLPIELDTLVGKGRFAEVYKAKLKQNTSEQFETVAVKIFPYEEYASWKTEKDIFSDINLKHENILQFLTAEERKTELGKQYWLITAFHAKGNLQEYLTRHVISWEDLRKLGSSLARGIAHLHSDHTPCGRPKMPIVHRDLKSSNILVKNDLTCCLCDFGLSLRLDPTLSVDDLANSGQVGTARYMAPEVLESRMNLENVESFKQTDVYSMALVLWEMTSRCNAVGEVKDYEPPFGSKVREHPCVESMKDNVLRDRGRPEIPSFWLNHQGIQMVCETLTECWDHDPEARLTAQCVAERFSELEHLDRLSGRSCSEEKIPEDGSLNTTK

[6] = molecular target: Myosin light chain kinase, smooth muscle (Homo sapiens) (UniProt Q15746); assay: Inhibition of human MLCK/MYLK using KKLNRTLSFAEPG as substrate at 1 uM in presence of 32P-ATP by Hotspot assay relative to control; values are per cent of control
Chain of Myosin light chain kinase, smooth muscle (Homo sapiens) (Q15746 whole entry): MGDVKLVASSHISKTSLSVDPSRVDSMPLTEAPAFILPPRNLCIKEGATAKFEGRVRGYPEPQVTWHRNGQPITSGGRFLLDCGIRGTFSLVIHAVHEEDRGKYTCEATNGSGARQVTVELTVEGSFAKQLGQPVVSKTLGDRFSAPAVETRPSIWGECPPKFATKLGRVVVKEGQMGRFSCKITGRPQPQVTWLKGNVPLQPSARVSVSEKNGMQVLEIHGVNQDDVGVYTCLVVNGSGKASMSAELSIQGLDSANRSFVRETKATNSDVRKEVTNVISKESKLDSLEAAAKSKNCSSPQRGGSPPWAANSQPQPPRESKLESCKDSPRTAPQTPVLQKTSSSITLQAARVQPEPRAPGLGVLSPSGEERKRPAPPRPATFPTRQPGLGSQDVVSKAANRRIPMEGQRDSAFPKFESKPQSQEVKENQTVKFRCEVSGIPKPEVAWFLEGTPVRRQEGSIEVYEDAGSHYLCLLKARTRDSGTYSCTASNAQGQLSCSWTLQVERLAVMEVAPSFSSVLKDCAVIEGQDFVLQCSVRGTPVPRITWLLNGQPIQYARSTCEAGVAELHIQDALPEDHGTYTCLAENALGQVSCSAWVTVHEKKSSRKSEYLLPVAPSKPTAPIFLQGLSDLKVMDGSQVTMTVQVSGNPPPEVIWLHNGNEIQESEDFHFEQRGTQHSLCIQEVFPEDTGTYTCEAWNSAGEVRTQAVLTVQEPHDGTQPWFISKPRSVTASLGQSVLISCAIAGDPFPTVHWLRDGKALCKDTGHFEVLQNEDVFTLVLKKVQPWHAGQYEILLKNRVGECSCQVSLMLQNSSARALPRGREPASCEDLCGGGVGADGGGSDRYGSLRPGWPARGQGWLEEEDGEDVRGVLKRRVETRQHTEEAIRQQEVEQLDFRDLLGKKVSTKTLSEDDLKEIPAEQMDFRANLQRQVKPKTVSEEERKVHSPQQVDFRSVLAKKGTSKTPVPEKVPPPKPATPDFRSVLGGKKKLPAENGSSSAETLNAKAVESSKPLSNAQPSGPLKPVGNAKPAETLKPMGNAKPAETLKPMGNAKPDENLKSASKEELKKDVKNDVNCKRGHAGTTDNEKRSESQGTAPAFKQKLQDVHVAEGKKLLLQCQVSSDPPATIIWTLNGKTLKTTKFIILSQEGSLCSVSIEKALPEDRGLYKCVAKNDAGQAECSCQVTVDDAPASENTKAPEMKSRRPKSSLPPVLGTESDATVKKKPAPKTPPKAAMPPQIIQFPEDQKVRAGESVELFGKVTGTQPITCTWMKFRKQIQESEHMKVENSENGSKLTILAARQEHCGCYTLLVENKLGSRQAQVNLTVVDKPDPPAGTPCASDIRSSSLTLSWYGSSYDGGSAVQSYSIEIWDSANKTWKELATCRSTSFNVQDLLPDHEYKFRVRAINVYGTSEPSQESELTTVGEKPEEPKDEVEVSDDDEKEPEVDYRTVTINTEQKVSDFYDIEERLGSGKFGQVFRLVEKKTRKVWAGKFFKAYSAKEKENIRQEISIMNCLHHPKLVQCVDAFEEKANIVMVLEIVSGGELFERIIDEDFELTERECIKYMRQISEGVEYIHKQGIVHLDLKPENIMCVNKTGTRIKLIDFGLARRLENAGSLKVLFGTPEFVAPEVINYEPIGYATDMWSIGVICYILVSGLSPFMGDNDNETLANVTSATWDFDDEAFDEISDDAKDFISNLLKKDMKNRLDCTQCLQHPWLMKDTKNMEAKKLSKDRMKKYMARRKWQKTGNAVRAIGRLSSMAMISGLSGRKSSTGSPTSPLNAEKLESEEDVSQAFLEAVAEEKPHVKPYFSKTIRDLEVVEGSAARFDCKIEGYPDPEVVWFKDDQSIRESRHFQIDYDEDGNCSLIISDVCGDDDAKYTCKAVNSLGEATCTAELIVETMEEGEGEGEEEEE

[7] = molecular target: Tyrosine-protein kinase Lck (Homo sapiens) (UniProt P06239); assay: Inhibition of human LCK using poly[Glu:Tyr] (4:1) as substrate at 1 uM in presence of 32P-ATP by Hotspot assay relative to control; values are per cent of control
Chain of Tyrosine-protein kinase Lck (Homo sapiens) (P06239 2-509 limits assumed): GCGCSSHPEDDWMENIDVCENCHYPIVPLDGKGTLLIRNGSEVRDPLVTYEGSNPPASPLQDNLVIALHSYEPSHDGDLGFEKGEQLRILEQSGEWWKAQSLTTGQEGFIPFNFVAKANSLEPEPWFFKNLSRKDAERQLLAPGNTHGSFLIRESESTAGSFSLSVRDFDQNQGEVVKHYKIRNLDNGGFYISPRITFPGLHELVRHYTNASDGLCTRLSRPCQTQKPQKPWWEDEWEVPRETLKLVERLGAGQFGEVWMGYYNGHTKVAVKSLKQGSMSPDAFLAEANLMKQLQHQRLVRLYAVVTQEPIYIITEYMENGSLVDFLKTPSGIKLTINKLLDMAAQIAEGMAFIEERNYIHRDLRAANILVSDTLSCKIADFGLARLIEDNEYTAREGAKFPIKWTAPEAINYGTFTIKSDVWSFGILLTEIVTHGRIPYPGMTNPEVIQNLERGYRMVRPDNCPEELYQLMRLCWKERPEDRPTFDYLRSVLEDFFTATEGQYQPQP

[8] = molecular target: T4, Serine/threonine-protein kinase NLK (Homo sapiens) (UniProt Q9UBE8); assay: Inhibition of human NLK using myelin basic protein as substrate at 1 uM in presence of 32P-ATP by Hotspot assay relative to control; values are per cent of control
T4 sequence (whole entry): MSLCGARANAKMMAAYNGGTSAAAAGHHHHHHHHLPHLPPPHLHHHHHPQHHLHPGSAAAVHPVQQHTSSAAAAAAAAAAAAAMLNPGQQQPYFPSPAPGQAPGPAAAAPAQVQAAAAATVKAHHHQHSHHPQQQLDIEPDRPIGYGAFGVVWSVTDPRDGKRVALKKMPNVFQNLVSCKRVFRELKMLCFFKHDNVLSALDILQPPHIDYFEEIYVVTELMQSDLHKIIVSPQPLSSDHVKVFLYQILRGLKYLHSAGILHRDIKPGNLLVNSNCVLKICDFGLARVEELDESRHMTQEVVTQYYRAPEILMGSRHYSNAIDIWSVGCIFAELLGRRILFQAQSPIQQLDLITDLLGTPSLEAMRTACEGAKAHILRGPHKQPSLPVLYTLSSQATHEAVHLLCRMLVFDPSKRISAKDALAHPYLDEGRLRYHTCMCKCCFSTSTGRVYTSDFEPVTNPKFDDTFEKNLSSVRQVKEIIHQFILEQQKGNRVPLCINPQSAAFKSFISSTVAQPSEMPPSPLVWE

[9] = molecular target: Tyrosine-protein kinase Srms (Homo sapiens) (UniProt Q9H3Y6); assay: Inhibition of human SRMS using poly[Glu:Tyr] (4:1) as substrate at 1 uM in presence of 32P-ATP by Hotspot assay relative to control; values are per cent of control
Chain of Tyrosine-protein kinase Srms (Homo sapiens) (Q9H3Y6 whole entry): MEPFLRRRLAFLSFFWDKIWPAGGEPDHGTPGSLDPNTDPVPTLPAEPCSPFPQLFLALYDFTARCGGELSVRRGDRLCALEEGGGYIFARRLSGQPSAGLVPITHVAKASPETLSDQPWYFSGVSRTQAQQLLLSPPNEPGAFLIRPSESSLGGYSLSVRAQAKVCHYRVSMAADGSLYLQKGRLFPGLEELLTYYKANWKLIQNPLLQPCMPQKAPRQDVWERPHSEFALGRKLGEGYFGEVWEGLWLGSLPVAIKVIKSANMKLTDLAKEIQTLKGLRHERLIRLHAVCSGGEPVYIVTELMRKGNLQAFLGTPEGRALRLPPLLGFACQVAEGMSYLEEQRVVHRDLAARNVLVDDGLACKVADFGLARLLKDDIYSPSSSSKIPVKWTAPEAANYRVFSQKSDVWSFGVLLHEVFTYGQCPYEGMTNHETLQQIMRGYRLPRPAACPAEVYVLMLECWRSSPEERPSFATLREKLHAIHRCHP

| SMILES | residual activity [1] [%] | residual activity [2] [%] | residual activity [3] [%] | residual activity [4] [%] | residual activity [5] [%] | residual activity [6] [%] | residual activity [7] [%] | residual activity [8] [%] | residual activity [9] [%] |
| --- | --- | --- | --- | --- | --- | --- | --- | --- | --- |
| CC(C)S(=O)(=O)c1ccc2nccc(Nc3ccc4scnc4c3)c2c1 | 47.4 | 98.2 | 98.5 | 97.1 | 101 | 97.9 | 39.4 | 41.8 | 77.1 |
| Cc1cc(-c2cnc(N)c3c(-c4ccc5scnc5c4)csc23)n(C)n1 | 33.2 | 95.4 | 96.9 | 88.9 | 35.2 | 95.3 | 17.3 | 6.75 | 78.8 |
| CNC(=O)c1ccc2c(c1)ncn2-c1ccc(CC(=O)OC(C)(C)C)cc1 | 84.2 | 100 | 95.3 | 96.3 | 73.3 | 97.7 | 13.1 | 99.7 | 105 |
